The source of these data is patent US20080161258A1, “Hsp and Supraventricular Arrhythmia” (priority 2004, published 2008).

“Also recorded” adds a separate entry of the source.

The test system of assay [1] is HL-1 cells. The assay is described as follows: Calcium current density (ICa++) in paced HL-1 cells. The note with it: HL-1 cells paced for 4 h; GGA two hours prior to and during pacing; FIG. 5. In kind it is cell-based, mouse. The method, then: I-V relationships of peak ICα++ in non-paced (CON) and paced (PC) HL-1 cells. ICα++ was recorded using 300-ms voltage steps to between −70 and +70 mV from −80 mV.

The test system of assay [2] is HL-1 cells. In words: Calcium transients and cell shortening in tachypaced HL-1 cells. In kind it is cell-based, mouse. Here is the method:
In addition to myolysis, we studied the effects of short-term tachypacing of HL-1 cells (3 Hz for 2, 3 and 4 hrs) on Ca^2+ transients (CaTs) and cell shortening (CS) in HL-1 cells, with and without pre-treatment to induce HSP expression: the heat shock stress response inducer geranylgeranylacetone (GGA, 10 μM) or heat shock at 43° C. for 20 minutes (HS) or transient transfection with human HSP27 (pHSP27). In brief, myocytes were field-stimulated with 10-ms twice-threshold strength square-wave pulses. CS was measured with a video edge-detector connected to a charge-coupled device. To record CaTs, myocytes were incubated with indo-1 AM (5-μM) for 5-7 min. Myocytes were then superfused at room temperature for at least 40 min to wash out extracellular indicator and to allow for deesterification. Background and cell autofluorescence were cancelled by zeroing the photomultiplier output in a cell without indo-1 loading. Ultraviolet light from a 100-W mercury arc lamp passing through a 340-nm interference filter (±10 nm bandwidth) was reflected by a dichroic mirror into a ×40 oil-immersion fluor objective for excitation of intracellular indo-1 (excitation beam ˜15 μm diameter). Exposure of the cell to UV light (5-10 of every 30-60 s) was controlled by an electronic shutter (Optikon, model T132) to minimize photobleaching. Emitted light (<550 nm) was reflected into a spectral separator, passed through parallel filters at 400 and 500 nm (+10 nm), detected by matched photomultiplier-tubes (Hamamatsu R2560 HA) and electronically filtered at 60 Hz. The ratio of fluorescence signals (R400/500) was digitized (1 kHz) and used as the index of [Ca^2+]i^(48).

Another assay concerns HL-1 myocytes. The assay is described as follows: Pacing-induced myolysis in HL-1 myocytes (myosin immunofluorescence). It counts as cell-based, mouse. The text has this: (§1) The HL-1 atrial myocytes, developed from adult mouse atria^29 were obtained from Dr. William Claycomb (Louisiana State University, New Orleans, La., USA) and cultured as described before.^28
Lipofectamine (Life technologies, The Netherlands) was used for transient transfections according to instructions of the manufacturer. pHSP70-YFP encodes a functional human HSP70 fused to YFP under control of a CMV promoter. pHSP27 encodes human HSP27 under control of CMV promoter. […]
After subjecting HL-1 myocytes to rapid pacing, the cells were fixed for 10 minutes in 100% methanol (−20° C.), dried and blocked in 5% BSA (20 minutes room temperature). […] Images of FITC, YFP or CY3 and DAPI fluorescence were obtained by using a Leica confocal laser-scanning microscope (Leica TCS SP2).
For the quantification of the amount of myolysis, at least 5 fields were examined with to a total amount of 250-500 myocytes, and myosin disruption (characteristic for myolysis^12) was scored by three independent observers blinded for the experimental groups. […]

Assay [3] deals with HSP27 and HSP70 expression in HL-1 myocytes. The assay is described as follows: HSP expression in paced HL-1 myocytes (Western blot). In kind it is cell-based, mouse. The note with it: 0.1 μM GGA two hours prior to and during pacing, FIG. 3A. The method, then: as §1
HL-1 myocytes (≧1×10^6 myocytes) were cultured on coverslips and subjected to a 10-fold rate increase (rapid pacing) by electrical field stimulation (5 Hz, 1.5 V/cm field strength; Grass S88 stimulator).^28 Elevation of HSP expression in cultured myocytes was accomplished in 3 ways: (I) by subjection to a modest heat stress at 43° C. for 30 min followed by overnight incubation at 37° C., (II) by incubation with 0.1 μM geranylgeranylacetone (GGA, gift from M. Kawai, Japan) two hours prior to and during pacing and (III) by transfection of pHSP70-YFP or pHSP27 24 hrs prior to pacing.
For Western-blot analysis, frozen RAAs and LAAs were used for protein isolation as described previously.^6 For the isolation of proteins from HL-1 myocytes, the cells were lysed by the addition of SDS-PAGE sample buffer followed by sonication before separation on 10% PAA-SDS gels (1.10^5 cells/slot). […] Signals were detected by the ECL-detection method (Amersham, The Netherlands) and quantified by densitometry. […]
(Immunoblotting shows a protein as a band on a membrane.)

In assay [4] the test system is dogs subjected to atrial tachypacing. The assay is described as follows: Atrial tachycardia-induced remodeling in dogs (atrial tachypacing). It counts as in vivo, dog. The following applies: ATP 400 bpm for 7 days. Here is the method:
The effect of HSP induction on in vivo AF-promotion was examined studying the effect of GGA on atrial tachycardia-induced remodeling in dogs (49). Dogs were subjected to atrial tachypacing (ATP) at 400 bpm for 7 days in the absence (ATP, n=5) and presence of oral GGA treatment (120 mg/kg/day, n=3), starting 3 days prior to ATP onset and continued throughout ATP. Results were compared to a non-paced control group (NP, n=5 dogs). Mongrel dogs (20 to 37 kg) were anesthetized with ketamine (5.3 mg/kg IV), diazepam (0.25 mg/kg IV), and halothane (1.5%). Unipolar leads were inserted through jugular veins into the right ventricular (RV) apex and right atrial (RA) appendage and connected to pacemakers (Medtronic) in subcutaneous pockets in the neck. A bipolar electrode was inserted into the RA for stimulation and recording during serial electrophysiological study (EPS). AV block was created by radiofrequency ablation to control ventricular response during atrial tachypacing (ATP). The RV pacemaker was programmed to 80 bpm. For open-chest EPS, dogs were anesthetized with morphine (2 mg/kg SC) and α-chloralose (120 mg/kg IV, followed by 29.25 mg·kg^−1·h^−1), and ventilated mechanically. Body temperature was maintained at 37° C., and a femoral artery and both femoral veins were cannulated for pressure monitoring and drug administration. A median sternotomy was performed, and bipolar electrodes were hooked to the RA and left atrial (LA) appendages for recording and stimulation. A programmable stimulator (Digital Cardiovascular Instruments) was used to deliver twice-threshold currents. Five silicon sheets containing 240 bipolar electrodes were sutured onto the atrial surfaces as previously described.^6-8http://circ.ahajournals.org/cgi/content/full/110/16/2313-R7-155347http://circ.ahajournals.org/cgi/content/full/110/16/2313-R8-155347 Atrial effective refractory periods (ERPs) were measured at multiple basic cycle lengths (BCLs) in the RA and LA appendages. AF vulnerability was determined as the percentage of atrial sites at which AF could be induced by single extrastimuli. After 24 hours for recovery, a baseline closed-chest EPS was performed under ketamine/diazepam/isoflurane anesthesia, and then ATP (400 bpm) was initiated. Closed-chest EPS was repeated at day 7 of ATP, and a final open-chest EPS was performed under morphine/α-chloralose anesthesia.

As for geranylgeranylacetone [GGA], in the assay on HL-1 cells [1], the “pacing-induced reduction of calcium current density (Ica++)” value is “the reduction was prevented; also recorded: strongly”. For the same substance, in the assay on HL-1 cells [2] (HL-1 cells tachypaced 3 Hz for 2, 3 and 4 hrs, GGA 10 μM or transient transfection with pHSP27), the “pacing-induced CaT and CS reductions” value was “significantly prevented”. In addition, in the assay with HL-1 cells [2] (HL-1 cells, 3 Hz, 2 hrs pacing, GGA 10 μM, p=0.01 vs tachypaced without GGA), the “reduction of Ca2+ transients (CaT) after pacing” value is listed as 2%±6%. In the assay with HL-1 cells [2] (HL-1 cells, 3 Hz, 2 hrs pacing, GGA 10 μM, p=0.03 vs tachypaced without GGA), the “reduction of cell-shortening (CS) after pacing” value is on record as 11%±3%. In the assay on HL-1 myocytes (16 hrs paced HL-1 myocytes, FIG. 3B), the “Immunofluorescent staining of myosin in paced myocytes” value is on record as “myosin-staining remains diffusely distributed in the cytoplasm”. For the same substance, the pacing-induced myolysis entry with HL-1 myocytes (HL-1 myocytes, rapid pacing 5 Hz, GGA 0.1 μM two hours prior to and during pacing, or transfection 24 hrs prior to pacing) is given as “significant reduction”. Besides, in assay [3], the HSP27 expression entry was “substantial elevations; also recorded: induces the expression” and the HSP70 expression entry was “substantial elevations; also recorded: induces the expression”. The “ATP-induced changes (DAF, ERP, vulnerability)” value in assay [4] (oral GGA 120 mg/kg/day) is on record as “almost completely suppressed”. Moreover, the “duration of induced AF (DAF)” value in assay [4] (oral GGA 120 mg/kg/day starting 3 days prior to ATP, p<0.05 vs ATP) turned out to be 39 ± 15 s. In addition, the “atrial effective refractory period (ERP)” value in assay [4] (oral GGA 120 mg/kg/day, basic cycle length 300 ms, p<0.05 vs ATP) amounted to 102 ± 3 ms. The “atrial vulnerability to AF (% of atrial sites in which AF was induced by a single extra stimulus)” value in assay [4] (oral GGA 120 mg/kg/day, p<0.05 vs ATP) worked out at 13±7%.
